Test systems include ACHN; EKVX; HOP-92; IGROV-1; K562; MCF7; MOLT-4; NCI-H522; OVCAR-3; PC-3; SF-539; SK-OV-3; SNB-19; T47D; TK-10; A498; HCT-15; HL-60; LOX IMVI.
Test in all cases: growth of human tumour cells (NCI), 48 h

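Cultured in 96-well plates, cells were exposed to test compound for 48 hours across five concentrations. GI50 marks 50% less growth.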 Activity calls are given as the source filed them. No stated cut-off is given here; in the data, active = GI50 up to about 1.1 µM and inactive = higher.

As to `[N-]=[N+]=Nc1cc(=O)n(-c2ccccc2)c(=O)n1-c1ccccc1`, the GI50 in the assay with ACHN, with EKVX, in the assay on HOP-92, in the assay on IGROV-1, in the assay on K562 and with MCF7 was > 100 µM (inactive) in each case. Besides, the GI50 with MOLT-4, in the assay with NCI-H522, in the assay with OVCAR-3, with PC-3, in the assay with SF-539 and with SK-OV-3 was > 100 µM (inactive) each time. Further, the GI50 with SNB-19, with T47D and with TK-10 was > 100 µM (inactive) throughout.

For the molecule `O=C(N[C@@H]1C=CCC[C@@H]1c1ccccc1)OCc1ccccc1`, the GI50 with A498 was 19.1 µM (inactive); in the assay on ACHN it was 24 µM (inactive); in the assay on EKVX, 23.2 µM (inactive); in the assay with HCT-15, 17.9 µM; with HL-60, 11.6 µM (inactive); with HOP-92 it was 16.5 µM (inactive). The GI50 with IGROV-1 was 24.2 µM (inactive); in the assay on K562 it was 23.7 µM (inactive); in the assay on LOX IMVI it was 15.2 µM (inactive); in the assay with MOLT-4, 13.1 µM (inactive); with NCI-H522 it was 14.8 µM (inactive); in the assay on OVCAR-3, 16.8 µM (inactive). Besides, the GI50 in the assay on SF-539 was 18.9 µM (inactive); in the assay on SK-OV-3, 30.4 µM (inactive); in the assay on SNB-19 it was 32.7 µM (inactive); with TK-10, 15.3 µM (inactive).

Regarding `O=C1C=Cc2noc3cccc1c23`, the GI50 in the assay with A498 was 13.6 µM (inactive); with ACHN, 2.76 µM (inactive); with EKVX, 3.9 µM (inactive); in the assay on HCT-15, 3.08 µM; in the assay with HL-60, 1.05 µM (active); in the assay with HOP-92, 2.28 µM (inactive). Besides, the GI50 in the assay on IGROV-1 is 12.9 µM (inactive); in the assay on K562 it was 2.5 µM (inactive); in the assay on LOX IMVI it was 3.15 µM (inactive); in the assay on MOLT-4, 0.836 µM (active); with NCI-H522, 1.29 µM (inactive); in the assay with OVCAR-3, 3.31 µM (inactive). Moreover, the GI50 with SF-539 was 16.4 µM (inactive); in the assay with SK-OV-3, 18.1 µM (inactive); with SNB-19, 17.5 µM (inactive); with TK-10, 18.4 µM (inactive).

Regarding `COC(=O)C1(C(=O)OC)N=C(C)OC1c1ccccc1O` (centres undefined), the GI50 in the assay on A498 was > 100 µM (inactive); in the assay on ACHN, > 100 µM (inactive); in the assay on EKVX it was > 100 µM (inactive); in the assay on HCT-15, greater than 100 µM; with HL-60, > 100 µM (inactive); with HOP-92, > 100 µM (inactive). The GI50 in the assay with IGROV-1, in the assay on K562, in the assay with LOX IMVI, with MCF7, in the assay with MOLT-4 and in the assay on OVCAR-3 was > 100 µM (inactive) throughout. Moreover, the GI50 in the assay with PC-3, in the assay with SK-OV-3, in the assay with SNB-19, in the assay with T47D and with TK-10 was > 100 µM (inactive) in each case.

Take `COc1c(Br)cc(Br)c(OC)c1-c1[nH]c(Br)c(Br)c1Br`: the GI50 is 12.1 µM (inactive) in the assay with A498; 4.78 µM (inactive) with ACHN; 6.93 µM (inactive) in the assay with EKVX; 4.28 µM in the assay with HCT-15; 6.76 µM (inactive) with HL-60; 1.82 µM (inactive) with HOP-92. Besides, the GI50 in the assay on IGROV-1 was 5.71 µM (inactive); in the assay on K562, 4.01 µM (inactive); with LOX IMVI, 11.7 µM (inactive); with MOLT-4 it was 4.53 µM (inactive); in the assay with NCI-H522, 2.18 µM (inactive); with OVCAR-3 it was 3.66 µM (inactive). The GI50 was 9.98 µM (inactive) in the assay with SF-539, 13.6 µM (inactive) in the assay on SK-OV-3, 13.1 µM (inactive) in the assay with SNB-19 and 11.4 µM (inactive) in the assay on TK-10.

For `CCOC(=O)C(=O)C=P(c1ccccc1)(c1ccccc1)c1ccccc1`, the GI50 in the assay with A498 was > 100 µM (inactive); in the assay with ACHN, > 100 µM (inactive); with EKVX it was > 100 µM (inactive); in the assay with HCT-15, greater than 100 µM; in the assay on HL-60, > 100 µM (inactive); with HOP-92, > 100 µM (inactive). Moreover, the GI50 in the assay with IGROV-1, in the assay on K562, with LOX IMVI, with MOLT-4, in the assay with NCI-H522 and in the assay with OVCAR-3 was > 100 µM (inactive) in each case. The GI50 in the assay on SF-539, with SK-OV-3, in the assay on SNB-19 and with TK-10 was > 100 µM (inactive) each time.

With `Cc1c(C(=O)/C=C/c2cccc3ccccc23)[n+]([O-])c2ccccc2[n+]1[O-]`, the GI50 with A498 was 16.9 µM (inactive); in the assay with ACHN it was 15.3 µM (inactive); in the assay on EKVX, 14.1 µM (inactive); in the assay with HCT-15 it was 12.7 µM; with HL-60, 7.41 µM (inactive); in the assay on HOP-92 it was 10.1 µM (inactive). Also, the GI50 with IGROV-1 was 12.9 µM (inactive); in the assay on K562, 4.72 µM (inactive); with LOX IMVI, 7.93 µM (inactive); in the assay on MOLT-4, 11.5 µM (inactive); in the assay on NCI-H522 it was 5.9 µM (inactive); in the assay on OVCAR-3 it was 10.7 µM (inactive). Also, the GI50 with SF-539 was 11.4 µM (inactive); in the assay on SK-OV-3, 17.3 µM (inactive); with SNB-19 it was 15.7 µM (inactive); with TK-10 it was 20.3 µM (inactive).

On to `CCOc1ccc(-c2oc(/C=N/NS(=O)(=O)c3ccc(C)cc3)c([N+](=O)[O-])c2-c2ccc(OCC)cc2)cc1`, for which the GI50 is 14.9 µM (inactive) in the assay on A498; 10.9 µM (inactive) in the assay with ACHN; 26.1 µM (inactive) in the assay with EKVX; 5.65 µM in the assay with HCT-15; 4.03 µM (inactive) in the assay on HL-60; 8.85 µM (inactive) in the assay on HOP-92. Further, the GI50 with IGROV-1 was 14.1 µM (inactive); in the assay on K562 it was 3.79 µM (inactive); with LOX IMVI it was 3.46 µM (inactive); in the assay on MOLT-4, 2.65 µM (inactive); in the assay with NCI-H522, 5.96 µM (inactive); with OVCAR-3 it was 15.6 µM (inactive). Further, the GI50 with SF-539 was 16.1 µM (inactive); with SK-OV-3, 15.4 µM (inactive); with SNB-19 it was 15 µM (inactive); with TK-10 it was 22 µM (inactive).

On to `C/C(=N\NS(=O)(=O)c1ccc(C)cc1)c1ccc[n+]([O-])n1`, for which the GI50 in the assay with A498 was > 100 µM (inactive); in the assay with ACHN, > 100 µM (inactive); with EKVX it was > 100 µM (inactive); with HCT-15 it was greater than 100 µM; in the assay with HL-60 it was 26.9 µM (inactive); in the assay with HOP-92, 32.3 µM (inactive). Besides, the GI50 is > 100 µM (inactive) in the assay on IGROV-1; 26.3 µM (inactive) in the assay with K562; 56.9 µM (inactive) in the assay on MOLT-4; 36.9 µM (inactive) in the assay on NCI-H522; 39.5 µM (inactive) in the assay with OVCAR-3; > 100 µM (inactive) with SF-539. Further, the GI50 in the assay with SK-OV-3 and in the assay with SNB-19 was > 100 µM (inactive) throughout.

Consider `COC(=O)C(C)Oc1ccc(O)cc1` (centres undefined), for which the GI50 in the assay on A498 was > 100 µM (inactive); in the assay on ACHN it was > 100 µM (inactive); in the assay on EKVX, > 100 µM (inactive); with HCT-15, greater than 100 µM; in the assay on HL-60, > 100 µM (inactive); in the assay with HOP-92 it was > 100 µM (inactive). For the same molecule, the GI50 with IGROV-1, in the assay on K562, with NCI-H522, with OVCAR-3, with SF-539 and with SK-OV-3 was > 100 µM (inactive) throughout. Besides, the GI50 in the assay with SNB-19 and with TK-10 was > 100 µM (inactive) throughout.

On to `O=C(CCc1ccccc1)On1nnc2ccccc2c1=O`, for which the GI50 with A498 is 38.3 µM (inactive); in the assay on ACHN it was > 100 µM (inactive); with EKVX it was > 100 µM (inactive); in the assay on HCT-15, greater than 100 µM; in the assay with HL-60, > 100 µM (inactive); in the assay with HOP-92, > 100 µM (inactive). For the same molecule, the GI50 in the assay on IGROV-1, with K562, with LOX IMVI, in the assay with MOLT-4, with NCI-H522 and with OVCAR-3 was > 100 µM (inactive) in each case. Also, the GI50 is > 100 µM (inactive) with SF-539, > 100 µM (inactive) with SK-OV-3, > 100 µM (inactive) in the assay with SNB-19 and 26.5 µM (inactive) in the assay on TK-10.

On to `C#CCN(Cc1ccc2nc(-c3ccccc3)c(Cl)nc2c1)c1cc(OC)c(OC)c(OC)c1`, for which the GI50 was > 100 µM (inactive) with A498; 58.2 µM (inactive) with ACHN; > 100 µM (inactive) with EKVX; greater than 100 µM in the assay with HCT-15; 57.9 µM (inactive) in the assay on HL-60; > 100 µM (inactive) in the assay with HOP-92. The GI50 was > 100 µM (inactive) in the assay on IGROV-1; 20.1 µM (inactive) with K562; 14.8 µM (inactive) with LOX IMVI; 83.6 µM (inactive) in the assay with MOLT-4; > 100 µM (inactive) in the assay on NCI-H522; > 100 µM (inactive) in the assay with OVCAR-3. Also, the GI50 in the assay with SF-539, with SK-OV-3, in the assay with SNB-19 and in the assay on TK-10 was > 100 µM (inactive) throughout.

Take `COc1ccc(OC)c(N2CC(N)C2=O)c1` (centres undefined): the GI50 is > 100 µM (inactive) in the assay with A498; > 100 µM (inactive) in the assay on ACHN; > 100 µM (inactive) with EKVX; greater than 100 µM in the assay on HCT-15; > 100 µM (inactive) with HL-60; > 100 µM (inactive) with HOP-92. In addition, the GI50 in the assay with IGROV-1, in the assay on K562, with LOX IMVI, in the assay on MOLT-4, in the assay with NCI-H522 and with OVCAR-3 was > 100 µM (inactive) each time. In addition, the GI50 in the assay with SF-539, in the assay on SK-OV-3, with SNB-19 and with TK-10 was > 100 µM (inactive) in each case.

These data come from ChEMBL document CHEMBL1201862, “PubChem BioAssay data set” (2004).
